{"source": "patent US20130184321A1", "about": "“Model Mouse of Attention Deficit Hyperactivity Disorder, Method for Investigating Effects for Preventing and Alleviating Attention Disorder using the Model Mouse, and Method for Treating Attention Disorder by Suppressing T-Type Calcium Channel” (KOREA ADVANCED INSTITUTE OF SCIENCE AND TECHNOLOGY, priority 2010, published 2013)", "tested_on": "ADHD animal model implanted with cobalt wire", "experiment": "Changes in brain wave (EEG spikes) of ADHD animal model by T-type calcium channel blocker", "assay_type": "in vivo, mouse", "settings": "cobalt wire implanted 7~9 days earlier, brain wave observed for one hour; for spikes observed in the frontal lobe, after vs before treatment: P<0.05", "experimental": "Particularly, to construct the ADHD mouse model, 0.2% avertin in 20 mg/ml of tribromoethanol was administered to the mouse by intraperitoneal injection (i.p.) to anesthetize it. The head of the mouse (B6 mouse at 10˜20 weeks) was fixed on stereotaxic (David Kopf Instruments, Germany) and then cobalt wire (Alfa Aesar) was inserted therein by using holder, a part of stereotaxic. Cobalt wire (Alfa Aesar) of 500 μm in the diameter was inserted radially (vertical direction to the cortical surface) in the location of anteroposteriorally 2.6 mm, laterally 1.8 mm, and ventrally 1.3 mm in the right dorsolateral frontal lobe.\nFor the record of EEG, epidural electrode was inserted in the right frontal lobe where the cobalt wire was inserted. Other electrodes were inserted in the left frontal lobe and temporal lobe. Particularly, the location for the insertion in the right frontal lobe was anteroposteriorally 2.8 mm and laterally 0.8 mm and the location in the left frontal lobe was anteroposteriorally 2.8 mm and laterally 0.8 mm. […]\nAfter three days of recovery, EEG signals and video images were recorded for 30 days. […]\nParticularly, 150 mg/kg of ethosuximide (Sigma-Aldrich, USA) was administered in the abdominal cavity of the ADHD animal model implanted with cobalt wire 7˜9 days earlier, followed by observation of the changes in brain wave for one hour. The mice were placed in the test room having square bottom where they could move freely and brain waves were being recorded from 30 minutes before the ethosuximide administration. The number of spikes was measured before and after the treatment of ethosuximide.\n60 mg/kg of zonisamide (Sigma-Aldrich, USA) and 100 mg/kg of phyenytoin (Sigma-Aldrich, USA) were administered respectively in the abdominal cavity of the ADHD animal model implanted with cobalt wire 7˜9 days earlier, followed by observation of the changes in brain wave for one hour. The mice were placed in the test room having square bottom where they could move freely and brain waves were being recorded from 30 minutes before the ethosuximide administration. […]", "data": [{"smiles": "CCC1(C)CC(=O)NC1=O", "note": "(stereo not drawn) [ethosuximide]", "values": [{"measurement": "number of spikes observed in the frontal lobe, after vs before treatment", "setting": "150 mg/kg in the abdominal cavity", "value": "significantly reduced"}]}, {"smiles": "O=C1NC(=O)C(c2ccccc2)(c2ccccc2)N1", "note": "[phyenytoin]", "values": [{"measurement": "spikes observed in the frontal lobe, after vs before treatment", "setting": "100 mg/kg in the abdominal cavity", "value": "significantly reduced"}]}, {"smiles": "NS(=O)(=O)Cc1noc2ccccc12", "note": "[zonisamide]", "values": [{"measurement": "spikes observed in the frontal lobe, after vs before treatment", "setting": "60 mg/kg in the abdominal cavity", "value": "significantly reduced"}]}]}
